Measured values reported in US6472416B1, “Sulfonylphenylpyrazole compounds useful as COX-2 inhibitors” (Abbott Laboratories, priority 1999, dated 2002).

| melting point | Compound |
| --- | --- |
| 205 to 208 °C | CCc1coc2c(-c3ccc(S(C)(=O)=O)cc3)c(-c3ccc(F)cc3)nn12 [Example 76, 6-(4-Fluorophenyl)-7-(4-(methylsulphonyl)phenyl)-3-ethylpyrazolo[5,1-b][1,3]oxazole] |
| 128 to 131 °C | CS(=O)(=O)c1ccc(-c2nn3c(C4C5CC6CC(C5)CC4C6)coc3c2-c2ccc(F)cc2)cc1 (stereo not shown) [Example 39, 3-(2-Adamantyl)-7-(4-fluorophenyl)-6-(4-(methylsulphonyl)phenyl)pyrazolo[5,1-b][1,3]oxazole] |
| 177 to 179 °C | CCc1coc2c(-c3ccc(F)cc3)c(-c3ccc(S(C)(=O)=O)cc3)nn12 [Example 61, 3-Ethyl-7-(4-fluorophenyl)-6-(4-(methylsulphonyl)phenyl)pyrazolo[5,1-b][1,3]oxazole] |
| 203 to 204 °C | CCOC(=O)c1oc2c(-c3ccc(F)cc3)c(-c3ccc(S(C)(=O)=O)cc3)nn2c1C [Example 51, Ethyl 7-(4-Fluorophenyl)-6-(4-methylsulfonylphenyl)-3-methylpyrazolo[5,1-b][1,3]oxazole-2-carboxylate] |
| 200 to 201 °C | CS(=O)(=O)c1ccc(-c2nn3c4c(oc3c2-c2ccc(F)cc2)COCC4)cc1 [Example 52, 3-(4-Fluorophenyl)-2-(4-methylsulfonylphenyl)-7,8-dihydro-5H-pyrazolo[5,1-b]pyrano[4,3-d][1,3]oxazole] |
| 257 to 259 °C | Cc1c(-c2ccc(F)cc2)oc2c(-c3ccc(F)cc3)c(-c3ccc(S(C)(=O)=O)cc3)nn12 [Example 43, 2,7-Bis(4-fluorophenyl)-3-methyl-6-(4-(methylsulphonyl)phenyl)pyrazolo[5,1-b][1,3]oxazole] |
| 198 to 200 °C | CS(=O)(=O)c1ccc(-c2nn3c(c2-c2ccc(F)cc2)OCCC3)cc1 [Example 1, 3-(4-Fluorophenyl)-2-(4-(methylsulphonyl)phenyl)-6,7-dihydro-5H-pyrazolo[5,1-b][1,3]oxazine] |
| 202 to 205 °C | Cc1cc(-c2coc3c(-c4ccc(F)cc4)c(-c4ccc(S(C)(=O)=O)cc4)nn23)ccc1Cl [Example 47, 3-(4-Chloro-3-methylphenyl)-7-(4-fluorophenyl)-6-(4-(methylsulphonyl)phenyl)pyrazolo[5,1-b][1,3]oxazole] |
| 191 to 193 °C | CS(=O)(=O)c1ccc(-c2c(OCC(=O)c3ccc(F)cc3)nn(CC(=O)c3ccc(F)cc3)c2-c2ccc(F)cc2)cc1 [Example 75, 2-[5-(4-Fluorophenyl)-4-(4-(methylsulphonyl)phenyl)-3-(2-oxo-2-(4-fluorophenyl)ethoxy)-1H-pyrazol-1-yl]-1-(4-fluorophenyl)ethan-1-one] |
| 289 to 291 °C | Cc1c(-c2ccc(F)cc2)oc2c(-c3ccc(S(C)(=O)=O)cc3)c(-c3ccc(F)cc3)nn12 [Example 74, 2,6-Bis(4-fluorophenyl)-3-methyl-7-(4-(methylsulphonyl)phenyl)pyrazolo[5,1-b][1,3]oxazole] |
| 184 to 185 °C | CC(C)n1nc(OCC(=O)c2ccc(F)cc2)c(-c2ccc(F)cc2)c1-c1ccc(S(C)(=O)=O)cc1 [Example 19, 2-{[4-(4-Fluorophenyl)-5-(4-(methylsulphonyl)phenyl)-1-isopropyl-1H-pyrazol-3-yl]oxy}-1-(4-fluorophenyl)ethan-1-one] |
| 197 to 199 °C | CC=CC(=O)c1oc2c(-c3ccc(F)cc3)c(-c3ccc(S(C)(=O)=O)cc3)nn2c1C [Example 58, 1-[7-(4-Fluorophenyl)-3-methyl-6-(4-(methylsulphonyl)phenyl)pyrazolo[5,1-b][1,3]oxazol-2-yl]but-2-en-1-one] |
| 178 to 180 °C | CS(=O)(=O)c1ccc(-c2nn3c4c(oc3c2-c2ccc(F)cc2)CSCC4)cc1 [Example 53, 3-(4-Fluorophenyl)-2-(4-methylsulfonylphenyl)-7,8-dihydro-5H-pyrazolo[5,1-b]thiopyrano[4,3-d][1,3]oxazole] |
